In patent US20010020032A1, “COATED PARTICLE FORMULATION” (priority 1996, published 2001):

Columns and labels:
[1] = Polymorphic stability of Form II on solvent contact; format: physicochemical; details: contact with methylene chloride
[2] = Detection of radiolabelled compound in saliva; format: in vivo
Method: Olanzapine is effective over a wide dosage range, the actual dose administered being dependent on the condition being treated. For example, in the treatment of adult humans, dosages of from about 0.25 to 50 mg, preferably from 1 to 30 mg, and most preferably 1 to 25 mg per day may be used. A once a day dosage is normally sufficient, although divided doses may be administered. For treatment of central nervous system disorders, a dose range of from 1 to 30 mg, preferably 1 to 25 mg per day is suitable.

[3] = Stability studies: discoloration on storage or excipient contact; format: physicochemical; details: olanzapine substance in contact with polyethylene glycol, particularly under moist conditions

Cc1cc2c(s1)Nc1ccccc1N=C2N1CCN(C)CC1 [Form II, 2-methyl-4-(4-methyl-1-piperazinyl)-10H-thieno[2,3-b][1,5]benzodiazepine]
conversion to other polymorphic forms [1]: can be converted to less desirable polymorphic forms

Cc1cc2c(s1)Nc1ccccc1N=C2N1CCN(C)CC1 [Radiolabelled Form II, 2-methyl-4-(4-methyl-1-piperazinyl)-10H-thieno-[2,3-b][1,5]benzodiazepine]
detection in saliva [2]: can be detected in the saliva

Cc1cc2c(s1)Nc1ccccc1N=C2N1CCN(C)CC1 [olanzapine, 2-methyl-4-(4-methyl-1-piperazinyl)-10H-thieno[2,3-b][1,5] benzodiazepine]
discoloration on polyethylene glycol contact [3]: produces undesired discoloration
